Experimental data: US11382882B2 (priority 2010, dated 2022)
Entries after “also recorded” stand apart in the source; their conditions may differ.

Key:
RNAIII gene expression = RNAIII gene expression in MRSA strain USA300 (FIG. 7); assay type: cell-based, Staphylococcus aureus
AgrC gene expression = AgrC gene expression in MRSA strain USA300 (FIG. 6); assay type: cell-based, Staphylococcus aureus
MRSA strain USA300 = test: microbe, parasite or virus in culture; conditions: Staphylococcus aureus, 6 h; for hemolysis at 1 µg/mL: read-out: ELISA α-hemolysin inhibition 1 μg/mL; for hemolysis at 10 µg/mL: read-out: ELISA α-hemolysin inhibition 10 μg/mL
[1] = test system: phenol-soluble modulin-a (psma) gene expression; test: phenol-soluble modulin-a (psma) gene expression in MRSA strain USA300 (FIG. 4); assay type: cell-based, Staphylococcus aureus
AgrA gene expression = AgrA gene expression in MRSA strain USA300 (FIG. 5); assay type: cell-based, Staphylococcus aureus
[2] = test system: α-hemolysin gene expression; assay type: cell-based, Staphylococcus aureus
hla transcription = hla transcription by qRT-PCR (FIG. 9A); conditions: 6 h, versus DMSO; for transcription of hla (qRT-PCR, in words): 10 and 50 μg/ml, 37° C.
Procedure: (§1) The effect of the compounds VII, X, XII, and XV on the transcription of hla and RNAIII was measured by qRT-PCR. S. aureus USA300 was incubated at 37° C. for 6 h in the presence of 0, 10, or 50 μg/ml of the compounds. The cultures were harvested, and total RNA was isolated using the RiboPure—bacterial RNA isolation kit (Ambion) with additional DNase I treatment. RNA yield and purity were assessed by measuring the ratio of UV absorbance at 260 and 280 nm, and the integrity of the RNA was assessed on a 1% denaturing agarose gel. High integrity RNA had two clear bands without smearing, indicating no fragmentation of 23S and 16S rRNA.
(§2) Real-time RT-PCR reactions were conducted using a SYBR—green mix (Bio-Rad). The data were analyzed using the ΔΔC2 and are represented as log2 of the treated sample/control sample (DMSO only).

RNAIII transcription = RNAIII transcription by qRT-PCR (FIG. 9B); conditions: 10 or 50 μg/ml; 37° C., 6 h; versus DMSO
Procedure: as §1, §2

Procedure for Streptococcus pyogenes: During the first phase of in vitro testing the concentration of the compounds was kept constant at 100 mg/L in 2% DMSO.

Row | Compound | RNAIII gene expression (RNAIII gene expression) | AgrC gene expression (AgrC gene expression) | rabbit blood hemolysis inhibition in Streptococcus pyogenes (in words) (Streptococcus pyogenes) | hemolysis at 1 µg/mL (MRSA strain USA300) | hemolysis at 10 µg/mL (MRSA strain USA300) | phenol-soluble modulin-a (psma) gene expression [1] | AgrA gene expression (AgrA gene expression) | α-hemolysin gene expression [2] | transcription of hla (qRT-PCR, in words) (hla transcription) | RNAIII expression (qRT-PCR, in words) (RNAIII transcription) | reduction of hla expression (hla transcription; 50 μg/mL)
1 | O=C(O)c1c(O)c(O)cc2ccccc12 [II] | inhibit | inhibit | active | 21.3 ± 5.2% | 76 ± 1.2% | inhibit | inhibit | inhibit | – | – | –
2 | O=C(O)c1cccc(-c2ccccc2)c1O [XV] | inhibit | inhibit | active | 49.4 ± 4.6% | 53 ± 5.9% | inhibit | inhibit | inhibit | – | – | –
3 | O=C(c1ccccc1)c1ccc(O)cc1O [XIV] | – | – | – | – | 26.7% | – | – | – | – | – | –
4 | O=C(O)c1c(F)c(F)cc2ccccc12 [III] | – | – | – | 20.8 ± 3.5% | 28.3 ± 3.4% | – | – | – | – | – | –
5 | COc1cc(C(=O)N/N=C/c2cccc3ccccc23)ccc1O [V] | inhibit | inhibit | active | 23 ± 1.3% | 88.4 ± 1.5% | inhibit | inhibit | inhibit | – | – | –
6 | O=C(O)c1ccc(Oc2ccc(F)cc2)cc1 [XII] | – | – | – | – | 29.1 ± 11% | – | – | – | reduced | – | –
7 | O=C(O)c1cc(-c2ccc(F)cc2F)ccc1O [X, diflunisal, reference compound] | inhibit | inhibit | active | 33 ± 3.6% | 62.3 ± 1.8% | inhibit | inhibit | inhibit | reduced | significant reduction; also recorded: reduced | ~3000 fold
8 | COc1cc(O)c(C(=O)c2ccccc2)cc1S(=O)(=O)O [IX] | – | – | active | – | 41.9 ± 8.2% | – | – | – | – | – | –
9 | CCc1cc(C(=O)COc2ccccc2)c(O)cc1O [VI] | – | – | active | 55.2 ± 5.8% | 76.3 ± 11.2% | – | inhibit | inhibit | – | – | –
10 | O=C(O)c1ccc(-c2ccc(F)cc2)cc1 [XVI] | inhibit | inhibit | active | 0% | 68.8 ± 11.3% | inhibit | inhibit | inhibit | reduced | – | –
11 | O=C(O)c1ccc(Oc2ccc(Cl)cc2)cc1 [XI] | – | – | – | – | 36.3 ± 8.2% | – | – | – | – | – | –
12 | O=C(O)c1ccc2cc(F)ccc2c1 [VIII] | – | – | – | – | 56.3 ± 1.7% | – | – | – | – | – | –
13 | O=C(O)c1cc(-c2cccc(F)c2)ccc1O [XIII] | – | – | – | – | 35.6 ± 12.5% | – | – | – | – | – | –
14 | O=C1Nc2cccc3cc(O)cc1c23 [I] | – | – | – | 28 ± 4.4% | 65 ± 2.5% | – | – | – | – | – | –
15 | O=C(O)c1ccc(-c2ccc(O)c(F)c2)cc1 [VII] | inhibit | inhibit | active | 31.3 ± 9% | 61 ± 14.8% | inhibit | inhibit | inhibit | reduced | – | –
16 | O=C(/C=C/c1ccc2c(c1)OCO2)c1ccccc(=O)c1O [IV] | – | – | – | 40.2 ± 5.2% | 73.6 ± 2.2% | – | – | – | – | – | –
